{"source": "paper PMC3726336", "about": "“Product inhibition of cellulases studied with ^14C-labeled cellulose substrates” (Biotechnology for Biofuels, 2013)", "key": {"[1]": {"target": "T1, TrCel5A (Trichoderma reesei, UniProt P07982)", "T1 construct": "TrCel7B, TrCel5A, and TrCel12A were purified from the culture filtrate of Tr QM 9414; made in house; host or cells: Trichoderma reesei QM 9414 culture filtrate (native producer)", "T1 sequence (P07982 22-418)": "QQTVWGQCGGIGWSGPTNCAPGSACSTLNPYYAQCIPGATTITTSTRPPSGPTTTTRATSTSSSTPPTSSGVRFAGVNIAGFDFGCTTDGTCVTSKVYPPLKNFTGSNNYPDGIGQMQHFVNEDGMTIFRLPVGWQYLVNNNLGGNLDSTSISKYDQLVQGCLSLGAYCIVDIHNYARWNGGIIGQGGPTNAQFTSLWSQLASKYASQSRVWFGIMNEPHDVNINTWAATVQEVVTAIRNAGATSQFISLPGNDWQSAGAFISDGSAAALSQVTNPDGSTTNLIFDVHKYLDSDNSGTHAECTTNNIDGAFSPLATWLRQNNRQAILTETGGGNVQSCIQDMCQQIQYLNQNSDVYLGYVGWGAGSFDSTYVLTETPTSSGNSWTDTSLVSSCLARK", "experiment": "Cellobiose inhibition of hydrolysis of 14C-amorphous cellulose by TrCel5A", "type": "biochemical", "details": "TrCel5A (5.0 nM), 35°C, not accountable by Equation 5", "excerpt": "EGs are a diverse group of enzymes present in all efficient cellulase systems. Their best recognized function is their synergism with CBHs. Depending on the conditions, the degree of synergistic effect may be more than 10-fold. Therefore, the inhibition of the EG component may result in a drastic decrease in the rate of the synergistic hydrolysis of cellulose. The main soluble product of the EG-catalyzed cellulose hydrolysis is cellobiose, but some glucose and higher-order oligosaccharides are also produced. Here, we studied the cellobiose inhibition of the EGs TrCel7B, TrCel5A and TrCel12A with ^14C-amorphous cellulose substrate. The enzyme concentrations and hydrolysis times were adjusted so that the linear region of the time course was studied. The time courses for the hydrolysis of ^14C-amorphous cellulose by TrCel7B in the presence and absence of added cellobiose are shown in Figure 9A. For the results with TrCel5A and TrCel12A, see Additional file 1: Figure S5. […] This figure is reasonably well in line with that measured for TrCel7B on amorphous cellulose using isothermal titration calorimetry. […]\nEGs were assessed on ^14C-amorphous cellulose. ^14C-amorphous cellulose (0.5 g l^-1) was incubated (with shaking at 700 rpm) with EG in 50 mM sodium acetate buffer, pH 5.0, containing BSA (0.1 g l^-1) in the presence and absence of added cellobiose. […]"}, "[2]": {"target": "AtCel7A (Acremonium thermophilum, UniProt A7WNT9)", "sequence (A7WNT9 entry or part of it)": "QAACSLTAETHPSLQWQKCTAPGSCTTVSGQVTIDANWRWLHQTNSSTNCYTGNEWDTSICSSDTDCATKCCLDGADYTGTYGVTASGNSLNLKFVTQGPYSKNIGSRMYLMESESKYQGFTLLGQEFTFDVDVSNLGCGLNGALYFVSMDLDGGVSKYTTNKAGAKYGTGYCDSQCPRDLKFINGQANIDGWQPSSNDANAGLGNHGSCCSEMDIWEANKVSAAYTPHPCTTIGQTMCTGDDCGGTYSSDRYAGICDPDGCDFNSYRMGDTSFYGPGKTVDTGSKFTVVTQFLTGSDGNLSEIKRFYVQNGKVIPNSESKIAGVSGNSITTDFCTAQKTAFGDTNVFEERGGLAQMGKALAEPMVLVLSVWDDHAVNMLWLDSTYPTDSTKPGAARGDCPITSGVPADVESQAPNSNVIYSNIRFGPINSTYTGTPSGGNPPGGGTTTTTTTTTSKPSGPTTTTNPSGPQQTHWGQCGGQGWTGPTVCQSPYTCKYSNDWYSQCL", "experiment": "Inhibition of synergistic hydrolysis of 14C-BC by AtCel7A (supplemented with EG TrCel5A)", "type": "biochemical", "details": "14C-BC substrate, read-out: IC50 for cellobiose", "method": "To study the cellobiose inhibition of GH7 CBHs, the synergistic hydrolysis of ^14C-BC in the presence of added cellobiose was followed (Figure 3, Additional file 1: Figures S1 and S2). Because the cellobiose inhibition of the EG TrCel5A is much weaker than that of GH7 CBHs, the inhibition of synergistic hydrolysis apparently reflects the inhibition of CBH. The strength of cellobiose inhibition was analyzed using plots of (DCB/DCB=0) versus [cellobiose], where DCB and DCB=0 represent the degree of conversion of ^14C-BC in the presence and absence of cellobiose, respectively (Figure 4, Additional file 1: Figure S3). In the case of experiments without added cellobiose, the reactions were provided with N188BG to prevent the inhibition of the CBH by the cellobiose released during hydrolysis. Experiments with no added cellobiose and without BG were also conducted. […] Therefore, the concentration of the cellobiose released during hydrolysis was added to the concentration of externally supplied cellobiose in generating the plots in Figure 4 and Additional file 1: Figure S3. For the calculation of IC50 values, the data were first fitted to hyperbolae:\nwhere [CB] is the concentration of cellobiose; [^14CBC] is the concentration of ^14C-BC used in the experiment; and C1, C2 and H are empirical constants. Equation 5 differs from Equation 1 by the presence of constant H. H was included to improve the fit and is a constant that accounts for the background radioactivity (the degree of conversion that is independent of CBH). The degree of conversion resulting from the activity of the EG was measured in a separate experiment (Additional file 1: Figure S4) and was subtracted from the degree of conversion resulting from the synergistic hydrolysis. Thus, in the case of complete inhibition, H should have a value of zero. […] Provided with the values of C1, C2 and H, the value of IC50 was calculated as follows: […]\nUsing the time course data measured in the presence and absence of cellobiose, the IC50 values were first found separately for each time point (Figure 4A). […]"}, "[3]": {"target": "Cel7A from Trichoderma harzianum", "set-up": "method as in PMID 23114223", "details": "hydrolysis of chloro-nitrophenyl lactoside; read-out: Ki value for cellobiose inhibition; cited from earlier work"}}, "note": "Where two headings read alike, the source gives them in different places.", "data": [{"smiles": "O=C[C@H](O)[C@@H](O)[C@H](O[C@@H]1O[C@H](CO)[C@@H](O)[C@H](O)[C@H]1O)[C@H](O)CO", "note": "[cellobiose, Cellobiose]", "values": [{"measurement": "IC50 (approximate, by visual inspection of Figure 9B)", "setting": "[1]", "value": "few hundred millimolar range"}, {"measurement": "IC50", "setting": "[2]; 25°C, IC50 decreased with hydrolysis time", "value": "190 ± 100", "unit": "µM"}, {"measurement": "IC50", "setting": "[2]; 35°C", "value": "440 ± 100", "unit": "µM"}, {"measurement": "IC50", "setting": "[2]; 50°C, IC50 increased with hydrolysis time", "value": "2120 ± 1400", "unit": "µM"}, {"measurement": "Ki", "setting": "[3]", "value": 7.2, "unit": "mM"}]}]}
